Some test systems named below: A498; CAKI-1; DMS-273; HCT-15; LOX IMVI; M19-MEL; NCI-H23; NCI-H460; OVCAR-3; RPMI-8226; SF-539; SN12C; SNB-19; SNB-78; SW-620; U-251; UACC-62; SK-OV-3.
Common to all, as to assay: DTP human tumour cell line panel, 48 h

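96-well plates; 48 h exposure; 5 concentrations. Endpoints by linear interpolation between flanking doses. Not reached: highest tested concentration assigned. GI50 marks 50% less growth.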 Activity calls are given as the source filed them. Rule as the data show it: active = GI50 up to about 1.1 µM and inactive = higher.

Broadly, the GI50 is the concentration giving 50% growth inhibition. `Cc1ccc(NC(=O)CCC(=O)C(C#N)c2ccc(Cl)cc2)cc1C` (configuration not stated): the GI50 was > 100 µM (inactive) in the test with A498; > 100 µM (inactive) in the test with CAKI-1; > 100 µM (inactive) with DMS-273; above 100 µM in the test on HCT-15; > 100 µM (inactive) in the test with LOX IMVI; > 100 µM (inactive) in the test with M19-MEL. For the same compound, the GI50 in the test with NCI-H23, in the test on NCI-H460, with OVCAR-3, in the test with RPMI-8226, in the test on SF-539 and with SN12C was > 100 µM (inactive) each time. Also, the GI50 in the test with SNB-19, in the test with SNB-78, with SW-620, in the test on U-251 and in the test on UACC-62 was > 100 µM (inactive) in each case.
As to `CN(C)/C(F)=P\C(F)(F)F` (configuration not stated), the GI50 in the test on A498 was > 100 µM (inactive); with CAKI-1 it was > 100 µM (inactive); in the test with DMS-273 it was > 100 µM (inactive); in the test on HCT-15, above 100 µM; in the test with LOX IMVI, > 100 µM (inactive); in the test with M19-MEL, > 100 µM (inactive). Further, the GI50 with NCI-H23, in the test with NCI-H460, with RPMI-8226, in the test with SF-539, with SK-OV-3 and in the test on SN12C was > 100 µM (inactive) in each case. Besides, the GI50 with SNB-19, in the test on SNB-78, in the test on SW-620, with U-251 and in the test with UACC-62 was > 100 µM (inactive) throughout.
Regarding `c1ccc(Nc2nnc(CSc3nc(-c4ccccc4)c(-c4ccccc4)[nH]3)s2)cc1`, the GI50 was 26.5 µM (inactive) in the test on A498; 16.8 µM (inactive) in the test with DMS-273; 18.1 µM with HCT-15; 17 µM (inactive) in the test with LOX IMVI; 15.3 µM (inactive) in the test on M19-MEL; 21.3 µM (inactive) with NCI-H23. Moreover, the GI50 in the test on NCI-H460 is 12.4 µM (inactive); in the test with OVCAR-3 it was 10.5 µM (inactive); in the test with RPMI-8226, 11.5 µM (inactive); in the test on SF-539 it was 26.4 µM (inactive); with SK-OV-3 it was 22.8 µM (inactive); in the test with SN12C, 17.1 µM (inactive). Moreover, the results for the GI50 in the test with SNB-78 and with U-251 were 30.1 µM (inactive) and 13.7 µM (inactive), respectively.
For the compound `CCCCCCCCCCCCCCCC(=O)OCCOCCOCCOCCOCCOC(=O)CCCCCCCCCCCCCCC`, the GI50 with A498 is > 100 µM (inactive); in the test on CAKI-1, > 100 µM (inactive); in the test with DMS-273, > 100 µM (inactive); in the test on HCT-15 it was above 100 µM; in the test with LOX IMVI, > 100 µM (inactive); with M19-MEL it was > 100 µM (inactive). Moreover, the GI50 in the test with NCI-H23, in the test with NCI-H460, with OVCAR-3, with RPMI-8226, in the test on SK-OV-3 and in the test with SN12C was > 100 µM (inactive) each time. Also, the GI50 in the test on SNB-19, in the test with SNB-78, in the test with SW-620, with U-251 and in the test on UACC-62 was > 100 µM (inactive) throughout.
Consider `CC1CC(C)C(C(O)CC2CC(=O)N(c3ccccc3)C(=O)C2)C(O)C1` (configuration not stated), for which the GI50 in the test with A498, in the test on CAKI-1, in the test with DMS-273, in the test with LOX IMVI, in the test on M19-MEL and in the test with NCI-H23 was > 100 µM (inactive) each time. The GI50 with NCI-H460, in the test with OVCAR-3, with RPMI-8226, in the test on SF-539, in the test with SK-OV-3 and with SN12C was > 100 µM (inactive) throughout. For the same compound, the GI50 in the test on SNB-19, in the test on SNB-78, with SW-620, with U-251 and in the test with UACC-62 was > 100 µM (inactive) throughout.

Source of the values: ChEMBL document CHEMBL1201862, “PubChem BioAssay data set” (2004).
